Test results from patent US5561131A, “Defaunation method” (Mallinckrodt Veterinary, Inc., priority 1991, dated 1996).

Tests used:
rumen ciliate protozoa [1] = experiment: In vitro activity of defaunation compounds against rumen ciliate protozoa; type: cell-based; details: 39° C., anaerobic, 3 hours, tested at 50, 150, 250 and 500 ppm
Description: Compounds of Table 1 were tested for their toxicity against rumen ciliate protozoa by firstly isolating protozoa from rumen liquor collected from faunated animals. The rumen liquor was then centrifuged at 500 g for five minutes and the supernatant discarded. The protozoal-rich sediment was then reconstituted in McDougal's artificial saliva. Residual bacteria were suppressed by using a combination of two antibiotics at low concentration. Nitrogen and energy substrate was optimized for the protozoal preparation. At all times the protozoal preparation was maintained at 39° C. and kept anaerobic.
Sixty milligrams of each the compounds of Table 1 were dissolved in 1.2 ml of dimethyl sulphoxide and dispersed in triplicate to achieve a final concentration of 50, 150, 250 and 500 ppm. Ten milliliters of protozoal preparation was then added to each tube. After every second compound, control tubes were included which contained everything except for compound. The tubes, to which a 5 ml glass syringe was attached, were then incubated for 3 hours in a water bath at 39° C. The production of gas causes the syringe plunger to be displaced.
At the end of the incubation period, the volume of gas produced was recorded and the viability of the protozoa assessed visually using a microscope. The toxicity of the compounds to protozoa was assessed from both the reduction in gas produced relative to the control and by direct observation of the protozoa for movement of cilia.

rumen bacteria [2] = experiment: In vitro bacterial gas inhibition; type: cell-based; details: at the concentration known to kill protozoa
Description: Compounds of Table 1 were also tested for toxicity bacteria. This involved removing protozoa from rumen liquor by centrifugation at 2,000 g for 5 minutes and collecting the bacterial rich supernatant. Nitrogen and energy substrate was added to the bacterial preparation which was then dispensed in triplicate 10 ml volumes over the same range of compound concentrations (50, 150, 250 and 500 ppm.) referred to in Example 2. Control tubes were placed after every second compound to enable the inhibition of gas resulting from the compound to be assessed. […] It can be seen that these compounds are selective in their mode of action, in that they are more toxic to protozoa than bacteria.

rumen ciliate protozoa [3] = experiment: Protozoal reduction in sheep; type: in vivo; set-up: concentration or dose not given beside the values; details: one week after dosing, relative to predosing numbers
Description: Defaunation compositions were prepared according to the method of Example 1.
Prior to dosing of the compound, a sample of rumen liquor (200 ml) was withdrawn to establish basal numbers of protozoa.
The sample was collected using a stomach tube, inserted into the rumen via a rumen cannula (fistulated animals) or per esophagus (intact animals). After straining the sample was well mixed using a magnetic stirrer and a 0.5 ml sample was withdrawn and added to 49.5 ml of a crystal violet stain. Protozoa were counted using a microscope and a Hawksley counting chamber.
One week after administering the compound, another rumen liquor sample was collected (as described above) and examined for the presence of protozoa. Where rumen ciliate protozoa were undetectable, a reduction or inhibition value of 100% was recorded. In general, most compounds expressed a strong inhibitory effect on protozoal populations.

[4] = Wool growth in defaunated sheep; type: in vivo; details: 167 mg/kg; for Response To Defaun: clean wool growth defaunated vs refaunated
Description: (§1) Seven sheep each were defaunated using a dose rate of 167 mg/kg. Compounds were administered by first mixing with 20 ml of ethanol and then with 200 ml of centrifuged rumen liquor. This solution was then administered via a flexible stomach tube directly into the rumen. The sheep were fed with a ration of 90% oaten chaff and 10% Lucerne chaff at a rate of 1000 g per day. The sheep were maintained in a defaunated state by their isolation from faunated sheep to prevent the possibility of refaunation. The sheep were allowed to adjust for 3 weeks after administering the compound before any wool growth measurements were taken.
(§2) At the start of the wool growth measurement period, a 10 cm square area of wool was removed from both sides of the sheep. After four weeks the same area was reclipped and the wool retained for scouring at the end of the trial.
(§3) The sheep then had protozoa introduced back into their rumen and were allowed to adjust for three weeks. Similarly, during the second four week period, the wool was clipped from the same patch area. The wool harvested during the two four week trial periods was then scoured of wool wax and extraneous material and weighed.

protozoa [5] = experiment: Wool growth trial: protozoal number; type: in vivo; details: sheep, defaunated period, 167 mg/kg
Description: as §1, §2, §3

protozoa [6] = experiment: Sheep test: protozoal numbers; type: in vivo
Description: (§4) In this trial the effect of defaunation by compounds 27, 30 and 37 (see Table 1) after 1 and 3 weeks were examined using penned sheep.
(§5) The compounds were each administered to two sheep as a single dose at 167 mg/kg body weight. Compositions containing each compound were prepared according to the method of Example 1. Sheep were penned and fed 1000 g/day of a chaffed oaten hay and Lucerne mixture (90/10). Protozoal and bacterial viabilities were monitored along with the feed intake of the sheep according to the methods taught in Examples 2, 3 and 7.

rumen bacteria [7] = experiment: Sheep test: bacterial gas production; type: in vivo
Description: as §4, §5

Sheep test: feed intake = type: in vivo
Description: as §4, §5

protozoa [8] = experiment: Pilot field testing: elimination of protozoal population in sheep; type: in vivo; details: for Elimination of protozoa: one week after single dose of 167 mg/kg
Description: (§6) In this trial the effect of defaunation agents after 1 and 2 weeks was examined in sheep in pilot field studies.
(§7) Thirty mature fine wooled merino weather sheep consuming a forage diet were given a single dose of either compound 27 or 37. The dose rate was 167 mg/kg and each compound was dispersed in 20 mL of ethanol and 200 mL of centrifuged rumen liquor. The compounds were then administered into the rumen using a flexible stomach tube.

[9] = Pilot field testing: adverse effects and grazing behavior; type: in vivo; details: sheep, 167 mg/kg
Description: as §6, §7

protozoa [10] = experiment: Cattle defaunation; type: in vivo; details: for Elimination of protozoa from cattle (in words): 332 mg/kg
Description: Four cattle each were defaunated using either compounds No. 27 or No. 37 at a dose rate of 332 mg/kg. The compounds were administered by firstly mixing with 100 mL of ethanol and then adding 400 mL of centrifuged rumen liquor. This mixture was then administered into the rumen of the animal using a stomach tube.

protozoa [11] = experiment: Pilot field testing: elimination of protozoal population in sheep; type: in vivo; details: week 3, 167 mg/kg

Structure (SMILES)	Conc Required to Kill all Protozoa (rumen ciliate protozoa [1])	Bact. Gas Inhibition at the conc. required to kill protozoa (rumen bacteria [2])	Protozoal Reduction (rumen ciliate protozoa [3])	Response To Defaun ([4]; sheep)	Prot. Number (protozoa [5])	Protozoal Nos. (protozoa [6]; 1 week after 167 mg/kg)	Protozoal Nos. (protozoa [6]; 3 weeks after 167 mg/kg)	Protozoal Nos. (protozoa [6]; pre-dose (baseline))	Bacterial gas production (rumen bacteria [7]; 1 week after 167 mg/kg)	Bacterial gas production (rumen bacteria [7]; 3 weeks after 167 mg/kg)	Bacterial gas production (rumen bacteria [7]; pre-dose (baseline))	Feed Intake (Sheep test: feed intake; 1 week after 167 mg/kg)	Feed Intake (Sheep test: feed intake; 3 weeks after 167 mg/kg)	Feed Intake (Sheep test: feed intake; pre-dose (baseline))	Elimination of protozoa (protozoa [8])	Protozoal number (protozoa [8]; week 0, 167 mg/kg)	Protozoal number (protozoa [8]; week 1, 167 mg/kg)	Protozoal number (protozoa [8]; week 2, 167 mg/kg)	Adverse effects and grazing behavior [9]	Elimination of protozoa from cattle (in words) (protozoa [10])	other results
Cc1ccc(Nc2nc(Cl)nc(Cl)n2)cc1Cl [Compound 27, 2,4 dichloro-6-(3 chloro-4-methylanilino)-s-triazine]	150 ppm	67	100%	10.3	0 per mL × 10^3	0 per mL × 10^3	0 per mL × 10^3	950 per mL × 10^3	3.5 M1 per 5 hr	3.8 M1 per 5 hr	2.9 M1 per 5 hr	1000 g/day	1000 g/day	966 g/day	total elimination of protozoa in all sheep	285 per mL × 10^3	0 per mL × 10^3	0 per mL × 10^3	no adverse effects and grazing behavior was normal	able to eliminate protozoa from cattle	Clean Wool Growth ([4]; sheep, defaunated period, 4 weeks, per midside patch): 1.753 g; Mean protozoal number (protozoa [10]; week 0, 332 mg/kg): 220 per mL × 10^3; Mean protozoal number (protozoa [10]; week 4, 332 mg/kg): 0 per mL × 10^3; Protozoal number (protozoa [11]): 0 per mL × 10^3
Clc1nc(Cl)nc(Nc2ccccc2Cl)n1 [Compound 37, 2,4-dichloro-6-(2-chloroanilino)-1,3,5-triazine]	250 ppm	57	100%	8.9	0 per mL × 10^3	0 per mL × 10^3	0 per mL × 10^3	497 per mL × 10^3	1.9 M1 per 5 hr	3.4 M1 per 5 hr	1.8 M1 per 5 hr	930 g/day	820 g/day	1000 g/day	total elimination of protozoa in all sheep	190 per mL × 10^3	0 per mL × 10^3	0 per mL × 10^3	no adverse effects and grazing behavior was normal	able to eliminate protozoa from cattle	Clean Wool Growth ([4]; 672 h): 1.773 g; Mean protozoal number (protozoa [10]; week 0, 332 mg/kg): 313 per mL × 10^3; Mean protozoal number (protozoa [10]; week 4, 332 mg/kg): 0 per mL × 10^3; Protozoal number (protozoa [11]): 0 per mL × 10^3
